Source: US8314075B2, “Compositions and methods for inhibiting expression of huntingtin gene” (Alynylam Pharmaceuticals, Inc., priority 2005, dated 2012)

Tests used:
[1] = tested on: Huntingtin mRNA; test: In vivo down-modulation of endogenous HD mRNA by continuous intrastriatal infusion in rats; set-up: species or system rat; conditions: 1.3 mg over 7 days (0.5 uL/hr at 1.1 mM), ipsilateral striatum
Description: In rats, 1.3 mg AL-DP-1997 or AL-DP-1998, or phosphate-buffered saline (PBS, vehicle control) was administered by continuous intrastriatal infusion over 7 days. Male Sprague-Dawley rats, approximately 250-300 g body weight, received stereotaxic implantation of 30-gauge infusion cannulae (Plastics One, Roanok, Va.) such that unilateral injections were targeted to the center of the striatum (anteroposterior+0.7 mm, mediolateral+3.0 mm, relative to bregma; dorsoventral 5 mm, relative to skull surface). Mini-osmotic pumps (model 1007D) were primed overnight according to the manufacturer's specifications, implanted subcutaneously, and connected via catheters, to deliver (4 rats per treatment group) PBS, 1.1 mM AL-DP-1997 or 1.1 mM AL-DP-1998 at 0.5 uL/hr over 7 days. At the end of the 7 day infusion period, animals were sacrificed, brains were removed, and ipsilateral striata encompassing the infusion site were flash frozen. Tissue samples of about 5-30 mg each were homogenized by sonication (BANDELIN electronic GmbH & Co. KG, Berlin, Germany) in Tissue and Cell Lysis solution (Epicentre, Madison, Wis.) containing 84 μg/ml Proteinase K (Epicentre, Madison, Wis.). Lysates were then stored at −80° C. For carrying out the bDNA assay, frozen lysates were thawed at room temperature, and Huntingtin and GAPDH mRNA were quantified using the Quantigene Explore Kit according to the manufacturer's instructions. For each tissue sample, the ratio of Huntingtin/GAPDH (normalized Huntingtin mRNA level) was calculated as an average of four determinations. These ratios were then averaged to obtain a group (treatment) average. The unconjugated dsRNA, AL-DP-1997, reduced the normalized Huntingtin mRNA level by 33%, relative to the PBS control group, whereas the cholesterol-conjugated dsRNA, AL-DP-1998, reduced the normalized Huntingtin mRNA level by 26%, relative to the PBS control group. Both reductions were statistically significant (p<0.05, ANOVA with Tukey post-hoc analysis).
With an identical experimental paradigm, AL-DP-5997 and AL-DP-6000 were also found to be effective in vivo in down-modulating HD mRNA levels after intrastriatal infusion with 1.3 mg over 7 days (0.5 uL/hr at 1.1 mM) in rats. AL-DP-5997 and AL-DP-6000 reduced the normalized Huntingtin mRNA levels in striatal tissue by 34% and 36%, respectively, relative to the PBS control group. In addition, AL-DP-5997 and AL-DP-6000 reduced the normalized Huntingtin mRNA levels in cortical tissue by 22% and 26% respectively.

[2] = tested on: Huntingtin mRNA; test: In vivo down-modulation of endogenous HD mRNA by intrastriatal infusion in mice; set-up: species or system mouse; conditions: Balb/c mice, 75 ug by 20 minute intrastriatal infusion, ipsilateral striatum, approximately 72 hours after injection
Description: In mice, 75 ug AL-DP-1998, or phosphate-buffered saline (PBS, vehicle control) was administered by a 20 minute intrastriatal infusion. Male Balb/c mice, approximately 20-25 g body weight, received unilateral injections of test article that were targeted to the striatum (anteroposterior+0.5 mm, mediolateral+2.0 mm, relative to bregma; dorsoventral 3.5 mm, relative to skull surface). Test articles (1.1 mM) were injected (4 animals per test article) at 0.25 uL/min. using pre-filled, pump-regulated Hamilton micro-syringes connected to a 33 gauge needle. Approximately 72 hours following the injection, animals were sacrificed, brains were removed, and ipsilateral striata encompassing the infusion site were dissected and flash frozen. As described above for rat tissue samples, mouse tissue samples were lysed, and Huntingtin and GAPDH mRNA levels quantified. For each tissue sample, the ratio of Huntingtin/GAPDH (normalized Huntingtin mRNA level) was calculated as an average of four determinations. These ratios were then averaged to obtain a group (treatment) average. The cholesterol-conjugated dsRNA, AL-DP-1998, reduced the normalized Huntingtin mRNA level by 33%, relative to the PBS control group, which was statistically significant (p<0.05, ANOVA with Tukey post-hoc analysis).

## AL-DP-1998: cholesterol-conjugated dsRNA based on AL-DP-5997, antisense 3'-end TT replaced with 5-bromo-2'-deoxyuridine; SEQ ID NO: 888/889 (chain 1 GUCACAAAGAACCGUGCAGTT; chain 2 CUGCACGGUUCUUUGUGACNN; chemistry not fully specified)
[1]
  reduction of normalized Huntingtin mRNA level in striatal tissue relative to the PBS control group: 26%
[2]
  reduction of normalized Huntingtin mRNA level relative to the PBS control group: 33%
